Results from patent publication US12338229B2, “Small molecule stimulators of steroid receptor coactivator-3 and methods of their use as cardioprotective and/or vascular regenerative agents” (BAYLOR COLLEGE OF MEDICINE, priority 2018, dated 2025).

Tests used:
bone marrow granulocytes = assay: qPCR of bone marrow granulocytes post-MI; format: in vivo, mice; details: bone marrow granulocytes 24 hours post-MI
Description: RNA isolation and qPCR. Total RNA was isolated from cells using the Qiagen RNA isolation kit. cDNA was prepared with the VILO master mix reagent. qPCR analysis was carried out using the Taqman kit with primers for Tlr7, Lcn2 and 18s.
Granulocyte isolation. Bone marrow cells were isolated from the rear legs of mice treated with control or MCB-613 for 24 hours. Rear legs were removed and placed in ice-cold Hanks balanced salt solution (HBSS) (without Ca/Mg) plus 2% FBS. Both ends of the bone were cut and the bone marrow was flushed with ice cold HBSS with 2% FBS using a 26G needle. Clumps were broken up with an 18G needle and filtered through a 70 μm filter and centrifuged at 400 g for 10 min at 4° C. The pellet was suspended in RBC lysis buffer (BD Biosciences Pharmigen; San Diego, CA) and incubated at room temperature for two minutes. HBSS buffer (8 mL) was added and spun at 400 g for 10 mins at 4° C. Viable cells were counted by trypan blue exclusion and bone marrow granulocytes were isolated using a mouse Neutrophil Isolation Kit from Miltenyi Biotec (Bergisch Gladbach, Germany).

cardiac fibroblasts = assay: Tube formation assay; format: cell-based, mice; details: adult cardiac fibroblasts, 6 μM, 24 hours
Description: Tube formation assay. Cardiac fibroblasts were treated with either DMSO or 6 μM MCB-613. Twenty four hours post treatment, drug was washed off by rinsing the cells twice with PBS. The cells were then conditioned with endothelial cell growth media for 24 hours. Post conditioning, cells were plated on growth factor reduced matrigel (10 mg/ml) to allow for tube formation overnight. The next day tubes were stained with Calcein AM and imaged using the Cytation imaging system.

[1] = test system: non-cardiomyocyte cells of hearts post-MI; assay: Single cell transcriptional profiling of non-cardiomyocytes post-MI; format: in vivo, mice
Description: Isolation of cardiac cells for single cell transcription profiling. Mice were placed under the surgical plane of anesthesia before cervical dislocation. The hearts were removed and cells were isolated by Langendorff retrograde perfusion of calcium-free pH 7.4 Tyrodes solution (130 mM NaCl, […], 0.5 mM MgCl, 0.33 mM NaH2PO4, 0.25 mm HEPES, 22 mM glucose) with collagenase, 1 mg/mL for 15 minutes. The hearts were then removed from the apparatus, and finely minced in the same Tyrodes buffer with 15 mg/mL bovine serum albumin (BSA) before trituration with a glass pipette. Cardiomyocytes were then pelleted by differential centrifugation, 300 RPM for 3 minutes. The supernatant containing the noncardiomyocyte population of cells was then filtered through a 70 micron filter and pelleted at 750 G, and resuspended in 1.1 mL 2% fetal bovine serum (FBS) in phosphate buffered saline (PBS). 0.1 mL was removed for the “no stain control” for fluorescence-activated cell sorting (FACS). The other 1 mL was incubated with 4 ug/mL Calcein Blue and 10 microM DyeCycle Ruby and incubated at 37° C. for 10 minutes. The cells were then spun down at 600G, and resuspended in 0.5 mL 2% FBS/PBS containing Sytox Green (30 nM). […] The cells were then pelleted and resuspended in 100 uL 0.4% FBS in PBS, counted, and then flowed through the 10×Genomics Chromium system for single cell transcriptomic profiling.
Isolation of cardiac cells. […] Then, 0.1 mL of the mixture was removed for the “no stain control” for fluorescence-activated cell sorting (FACS). […] The cells were then pelleted and resuspended in 100 μL 0.4% FBS in PBS, counted, and passed through the 10× Genomics Chromium system.
Single-cell RNA-sequencing. […] To identify cell clusters and differentially expressed genes, the Cell Ranger results were analyzed with Seurat suite version 3.0.0 implemented in R (version 3.4.3). Cells with <200 or >5,000 unique genes expressed or >25% of reads mapping to mitochondria were removed as quality control measure. […]

[2] = Toxicity profile in vitro and in vivo

## CCC1C/C(=C\c2cccnc2)C(=O)/C(=C/c2cccnc2)C1 (stereo not drawn) [MCB-613]
Bone marrow granulocytes
  Tlr7 and Lcn2 mRNA expression in granulocytes: Increased expression of Tlr7 and Lcn2
Cardiac fibroblasts
  tube formation: stimulated tube formation
[1]; 10 weeks post-MI
  endothelial cell growth: stimulates endothelial cell growth of two distinct endothelial cell populations
[1]; 12 weeks post-MI
  changes in non-cardiomyocyte cell number: macrophage cluster 1 and B lymphocytes decreased in number while epicardial cells, NK/T lymphocytes, fibroblasts, and endothelial cells, including lymphatic cells, were increased in cell number
  granulocyte functions (gene set enrichment): suppresses inflammatory granulocyte functions
[2]
  toxicity profile: low toxicity profile in vitro and in vivo
